The source of these data is PubChem BioAssay AID330 (DTP/NCI, 2004).

Each structure is given as a SMILES string. Several values for one entry are separate records, joined by “and”; a condition that tells them apart may be missing. Equal values may be shown once. Inconclusive results and toxic doses are left out.

The assay has as its system P388 leukemia ip, CD2F1 mice, survival T/C. The experiment in a line: NCI In Vivo Anticancer Drug Screen. Data for tumor model P388 Leukemia (intraperitoneal) in CD2F1 (CDF1) mice. The conditions noted are these: endpoint: median survival time, higher = longer survival. In short, it runs like this: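 Mice carrying the transplanted tumor received test compound or vehicle. Survival was recorded in each group, and the value is the treated-group measurement divided by that of the vehicle-treated control group.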

Setting [1] is: dose: 50.0 mg/kg/injection, schedule: Q01DX005 (ip), vehicle: Klucel (hydroxypropylcellulose) (HPC).
[2] abbreviates: dose: 100.0 mg/kg/injection, schedule: Q01DX005 (ip), vehicle: Klucel (hydroxypropylcellulose) (HPC).
The mark [3] stands for this setting: dose: 200.0 mg/kg/injection, schedule: Q01DX005 (ip), vehicle: Klucel (hydroxypropylcellulose) (HPC).
The mark [4] stands for this setting: dose: 50.0 mg/kg/injection, schedule: Q01DX009 (ip), vehicle: saline with Tween-80.
Where [5] appears, read: dose: 100.0 mg/kg/injection, schedule: Q01DX009 (ip), vehicle: saline with Tween-80.
Where [6] appears, read: dose: 200.0 mg/kg/injection, schedule: Q01DX009 (ip), vehicle: saline with Tween-80.
The mark [7] stands for this setting: dose: 50.0 mg/kg/injection, schedule: Q01DX005 (ip), vehicle: saline with Tween-80.
Where [8] appears, read: dose: 100.0 mg/kg/injection, schedule: Q01DX005 (ip), vehicle: saline with Tween-80.
Setting [9] is: dose: 200.0 mg/kg/injection, schedule: Q01DX005 (ip), vehicle: saline with Tween-80.
Where [10] appears, read: dose: 50.0 mg/kg/injection, schedule: Q01DX009 (ip), vehicle: Klucel (hydroxypropylcellulose) (HPC).
The mark [11] stands for this setting: dose: 100.0 mg/kg/injection, schedule: Q01DX009 (ip), vehicle: Klucel (hydroxypropylcellulose) (HPC).
The mark [12] stands for this setting: dose: 200.0 mg/kg/injection, schedule: Q01DX009 (ip), vehicle: Klucel (hydroxypropylcellulose) (HPC).
Setting [13] is: dose: 100.0 mg/kg/injection, schedule: Q04DX003 (ip), vehicle: saline with Tween-80.
Setting [14] is: dose: 200.0 mg/kg/injection, schedule: Q04DX003 (ip), vehicle: saline with Tween-80.
[15] abbreviates: dose: 60.0 mg/kg/injection, schedule: Q01DX005 (ip), vehicle: Klucel (hydroxypropylcellulose) (HPC).
Setting [16] is: dose: 120.0 mg/kg/injection, schedule: Q01DX005 (ip), vehicle: Klucel (hydroxypropylcellulose) (HPC).
[17] abbreviates: dose: 240.0 mg/kg/injection, schedule: Q01DX005 (ip), vehicle: Klucel (hydroxypropylcellulose) (HPC).

Take `COc1ccc(C(=O)NC(c2ccccc2)c2cccs2)cc1` (configuration not stated): the T/C runs as follows: (dose: 100.0 mg/kg/injection, schedule: Q01DX001 (ip), vehicle: Klucel (hydroxypropylcellulose) (HPC)) 113 % of control; (dose: 200.0 mg/kg/injection, schedule: Q01DX001 (ip), vehicle: Klucel (hydroxypropylcellulose) (HPC)) 104 % of control; (dose: 400.0 mg/kg/injection, schedule: Q01DX001 (ip), vehicle: Klucel (hydroxypropylcellulose) (HPC)) 109 % of control.
With `COc1cc2c(cc1OC)C(c1c(Cl)cccc1Cl)=NCC2`, the T/C is, setting by setting: under setting [1], 96 % of control; under setting [2], 105 % of control; under setting [3], 110 % of control.
On to `CC(=O)OC1=C2OC(=O)C3(C2C=CC=C1)C1C=CC=CC13` (configuration not stated), for which the T/C is 97 % of control under setting [4], 97 % of control under setting [5] and 111 % of control under setting [6].
In the case of `CCN1CC2(COC)C(O)CC(OC)C34C5CC6(O)C(OC)C=C(C5C6OC(=O)c5ccc(OC)c(OC)c5)C(C(OC)C23)C14` (configuration not stated), the T/C is 90 % of control (dose: 0.05 mg/kg/injection, schedule: Q01DX009 (ip), vehicle: Klucel (hydroxypropylcellulose) (HPC)); 102 % of control (dose: 0.05 mg/kg/injection, schedule: Q01DX009 (ip), vehicle: saline with Tween-80); 91 % of control (dose: 0.1 mg/kg/injection, schedule: Q01DX009 (ip), vehicle: Klucel (hydroxypropylcellulose) (HPC)); 96 % of control (dose: 0.1 mg/kg/injection, schedule: Q01DX009 (ip), vehicle: saline with Tween-80); 100 % of control (dose: 0.2 mg/kg/injection, schedule: Q01DX009 (ip), vehicle: Klucel (hydroxypropylcellulose) (HPC)); 91 % of control (dose: 0.2 mg/kg/injection, schedule: Q01DX009 (ip), vehicle: saline with Tween-80). Further, the T/C was 116 % of control (dose: 0.4 mg/kg/injection, schedule: Q01DX009 (ip), vehicle: Klucel (hydroxypropylcellulose) (HPC)) and 91 % of control (dose: 0.4 mg/kg/injection, schedule: Q01DX009 (ip), vehicle: saline with Tween-80).
Turning to `Cc1c(C)c2ccc3occc(=O)c3c2oc1=O`, the T/C reads like this: under setting [7], 102 % of control; under setting [8], 101 % of control; under setting [9], 100 % of control.
Regarding `O=[N+]([O-])c1ccc(-c2nc3ncncc3[nH]2)cc1`, the T/C is, setting by setting: (dose: 6.25 mg/kg/injection, schedule: Q01DX009 (ip), vehicle: Klucel (hydroxypropylcellulose) (HPC)) 107 % of control; (dose: 12.5 mg/kg/injection, schedule: Q01DX009 (ip), vehicle: Klucel (hydroxypropylcellulose) (HPC)) 99 % of control.
As to `CC(=O)c1ccc2c3c(cc(C)c2c1)CCCC3`, the T/C was 103 % of control under setting [1], 99 % of control under setting [2] and 89 % of control under setting [3].
Consider `Cn1c2ccccc2c(=S)c2cc(NC(=O)CCCCC(=O)Nc3ccc4c(c3)c(=S)c3ccccc3n4C)ccc21`, for which the T/C was 110 % of control under setting [7], 98 % of control under setting [8] and 104 % of control under setting [9].
`N=Nc1c(O)[nH]c2ccccc12`: the T/C is, setting by setting: under setting [10], 89 % of control; under setting [11], 89 % of control; under setting [12], 95 % of control; (dose: 400.0 mg/kg/injection, schedule: Q01DX009 (ip), vehicle: Klucel (hydroxypropylcellulose) (HPC)) 100 % of control.
As to `O=S1(=O)N=C([O-])c2ccc(C[N+]3(CCCl)CCN(CCCl)CC3)cc21`, the T/C reads like this: (dose: 12.5 mg/kg/injection, schedule: Q01DX009 (ip), vehicle: DMSO) 87 % of control; (dose: 25.0 mg/kg/injection, schedule: Q01DX009 (ip), vehicle: DMSO) 105 % of control; (dose: 50.0 mg/kg/injection, schedule: Q01DX009 (ip), vehicle: DMSO) 87 % of control; (dose: 100.0 mg/kg/injection, schedule: Q01DX009 (ip), vehicle: DMSO) 115 % of control.
Turning to `COc1ccc(C2c3cc(OC(C)=O)c(OC)cc3Oc3cc(OC)c(OC(C)=O)cc32)cc1`, the T/C under setting [1] was 96 % of control, the T/C under setting [2] is 93 % of control and the T/C under setting [3] was 87 % of control.
On to `COC(=O)/C=C1\C(=O)OC(C)(C)C1(C)C`, for which the T/C was 111 % of control under setting [10], 100 % of control under setting [11] and 103 % of control under setting [12].
On to `c1ccc2c3c([nH]c2c1)[C@@H]1CCN2CCC[C@@H]2N1CC3`, for which the T/C is 101 % of control (dose: 5.75 mg/kg/injection, schedule: Q01DX005 (ip), vehicle: Klucel (hydroxypropylcellulose) (HPC)); 100 % of control (dose: 11.5 mg/kg/injection, schedule: Q01DX005 (ip), vehicle: Klucel (hydroxypropylcellulose) (HPC)); 95 % of control (dose: 23.0 mg/kg/injection, schedule: Q01DX005 (ip), vehicle: Klucel (hydroxypropylcellulose) (HPC)); 93 % of control (dose: 46.0 mg/kg/injection, schedule: Q01DX005 (ip), vehicle: Klucel (hydroxypropylcellulose) (HPC)).
Turning to `CCCCCCCCCCCCCCCC(=O)Nc1ccn(C2OC(CO)C(O)C2O)c(=O)n1` (configuration not stated), the T/C by setting is: (dose: 3.12 mg/kg/injection, schedule: Q01DX009 (ip), vehicle: suspension in saline) 172 % of control; (dose: 6.25 mg/kg/injection, schedule: Q01DX009 (ip), vehicle: suspension in saline) 188 % of control; (dose: 12.5 mg/kg/injection, schedule: Q01DX009 (ip), vehicle: suspension in saline) 191 % of control and 235 % of control; (dose: 25.0 mg/kg/injection, schedule: Q01DX009 (ip), vehicle: suspension in saline) 260 % of control and 283 % of control.
For `NNC(=O)CCC(N)C(=O)O` (configuration not stated), the T/C is 100 % of control (dose: 50.0 mg/kg/injection, schedule: Q01DX009 (ip), vehicle: saline sonified); 95 % of control (dose: 50.0 mg/kg/injection, schedule: Q04DX003 (ip), vehicle: saline with Tween-80); 113 % of control (dose: 100.0 mg/kg/injection, schedule: Q01DX009 (ip), vehicle: saline sonified); 90 % of control under setting [13]; 109 % of control under setting [14].
Turning to `COc1c2occc2c(OC)c2c(C)c(C(=O)OCCN3CCOCC3)oc12`, the T/C is, setting by setting: under setting [15], 96 % of control; under setting [16], 91 % of control; under setting [17], 91 % of control.
Turning to `COc1ccc(C2OCOCC2C)cc1` (configuration not stated), the T/C by setting is: (dose: 25.0 mg/kg/injection, schedule: Q01DX009 (ip), vehicle: saline with Tween-80) 103 % of control; under setting [4], 100 % of control; under setting [5], 103 % of control; under setting [6], 101 % of control; (dose: 400.0 mg/kg/injection, schedule: Q01DX009 (ip), vehicle: saline with Tween-80) 95 % of control.
In the case of `O=C1CSC(c2cccc(Cl)c2)N1N1C(=O)CSC1c1cccc(Cl)c1` (configuration not stated), the T/C under setting [15] is 102 % of control, the T/C under setting [16] was 97 % of control and the T/C under setting [17] was 94 % of control.
Turning to `[N-]=[N+]=Nc1cc(-c2ccccc2)nc2cc3c(cc12)OCO3`, the T/C reads like this: (dose: 60.0 mg/kg/injection, schedule: Q01DX005 (ip), vehicle: saline with Tween-80) 97 % of control; (dose: 120.0 mg/kg/injection, schedule: Q01DX005 (ip), vehicle: saline with Tween-80) 105 % of control; (dose: 240.0 mg/kg/injection, schedule: Q01DX005 (ip), vehicle: saline with Tween-80) 108 % of control.
Regarding `CCCCCC1(c2ccccc2)CCCC(C#N)C1=O` (configuration not stated), the T/C under setting [13] was 101 % of control and the T/C under setting [14] was 88 % of control.
Take `CC(C)c1ccc(C2NC(=S)NC(=O)C2C#N)cc1` (configuration not stated): the T/C runs as follows: (dose: 50.0 mg/kg/injection, schedule: Q01DX009 (ip), vehicle: saline) 101 % of control; (dose: 100.0 mg/kg/injection, schedule: Q01DX009 (ip), vehicle: saline) 100 % of control; (dose: 200.0 mg/kg/injection, schedule: Q01DX009 (ip), vehicle: saline) 98 % of control.
Regarding `CCOC(=O)C(C=O)(NC(=O)c1ccccc1)OCC` (configuration not stated), the T/C is 95 % of control under setting [13]; 90 % of control under setting [14]; 95 % of control (dose: 400.0 mg/kg/injection, schedule: Q04DX003 (ip), vehicle: saline with Tween-80).
